We go through 2 compounds from patent publication US9320733B2, “Assessment and modulation of cerebrospinal fluid for head pain” (priority 2010, dated 2016).

The data set has as its system patient with headache (CSF pressures 13-14 cmW). As to the kind of experiment: Case report (Example 1): one patient with 10 years of headache and normal CSF pressure, treated by CSF removal via lumbar puncture and then Diamox. The data set is classed as in vivo, human. The protocol: Therefore more CSF was drained 10 ml total. […] For example triptans may be combined with Diamox or diuretics, triptans may be combined with NSAM or Lumbar puncture, shunts or intraocular drainage procedures may be use singularly or together.

For the compound `CC(=O)Nc1nnc(S(N)(=O)=O)s1` [Diamox, acetazolamide], the “postdural puncture headache (PDPH) while on treatment” value (3 days after LP with 10 ml CSF drained and start of Diamox, PDPH lost on brief discontinuation) is recorded as “developed postdurai puncture headache”. Further, the “usual headache after being placed on Diamox” value (after removal of 10 ml CSF by LP, 3 days later) was “total absence of their usual headache”. Further, the “symptom status on maintenance treatment” value (low dose Diamox, after CSF removal) is “symptom free”.
As for `CC1(C)O[C@@H]2[C@@H](CO[C@@]3(COS(N)(=O)=O)OC(C)(C)O[C@@H]23)O1` [Topamax, topiramate], the “response of the major headache component to medication” value (10 years of headache, before CSF removal) was “refractory to treatment”.
